Reference: US6444613B1, “Defoliant” (Hoechst Schering AgrEvo GmbH, priority 1999, dated 2002)

Tested on: cotton plants
Assay: Action as defoliant: leaf abscission of cotton plants after spray application
Type: in vivo

CCOC(=O)C(Cl)Cc1cc(-n2nc(C)n(C(F)F)c2=O)c(F)cc1Cl (centres unmarked) [Carfentrazone-ethyl, carfentrazone-ethyl]
Effect in % (leaf abscission) (Table 3.1 carfentrazone-ethyl trial, dose 25 g/ha, 10 days): 0%
Effect in % (leaf abscission) (Table 3.1 carfentrazone-ethyl trial, dose 25 g/ha, 20 days): 5%
Effect in % (leaf abscission) (Table 3.2 carfentrazone-ethyl trial, dose 1.5 g/ha, 6 days): 29%
Effect in % (leaf abscission) (Table 3.2 carfentrazone-ethyl trial, dose 1.5 g/ha, 9 days): 29%

COC(=O)CSc1cc(/N=c2\sc(=O)n3n2CCCC3)c(F)cc1Cl [Fluthiacet-methyl, fluthiacet-methyl]
Effect in % (leaf abscission) (Table 1 fluthiacet-methyl trial, dose 0.,5 g/ha, 4 days): 5%
Effect in % (leaf abscission) (Table 1 fluthiacet-methyl trial, dose 0.,5 g/ha, 5 days): 14%
Effect in % (leaf abscission) (Table 1 fluthiacet-methyl trial, dose 0.25 g/ha, 4 days): 0%
Effect in % (leaf abscission) (Table 1 fluthiacet-methyl trial, dose 0.25 g/ha, 5 days): 0%

O=C(Nc1ccccc1)Nc1cnns1 [Thidiazuron, thidiazuron]
Effect in % (leaf abscission) (Table 1 fluthiacet-methyl trial, dose 25 g/ha, 4 days, cotton 8-10 leaf stage): 5%
Effect in % (leaf abscission) (Table 1 fluthiacet-methyl trial, dose 25 g/ha, 5 days, cotton 8-10 leaf stage): 24%
Effect in % (leaf abscission) (Table 2 pyraflufen-ethyl trial, dose 25 g/ha, 3 days): 4%
Effect in % (leaf abscission) (Table 2 pyraflufen-ethyl trial, dose 25 g/ha, 5 days): 17%
Effect in % (leaf abscission) (Table 3.1 carfentrazone-ethyl trial, dose 80 g/ha, 10 days): 0%
Effect in % (leaf abscission) (Table 3.1 carfentrazone-ethyl trial, dose 80 g/ha, 20 days): 8%
Effect in % (leaf abscission) (Table 3.2 carfentrazone-ethyl trial, dose 25 g/ha, 6 days): 29%
Effect in % (leaf abscission) (Table 3.2 carfentrazone-ethyl trial, dose 25 g/ha, 9 days): 52%

pyraflufen-ethyl
Effect in % (leaf abscission) (Table 2 pyraflufen-ethyl trial, dose 1 g/ha, 3 days): 0%
Effect in % (leaf abscission) (Table 2 pyraflufen-ethyl trial, dose 1 g/ha, 5 days): 0%
Effect in % (leaf abscission) (Table 2 pyraflufen-ethyl trial, dose 2 g/ha, 3 days): 0%
Effect in % (leaf abscission) (Table 2 pyraflufen-ethyl trial, dose 2 g/ha, 5 days): 0%
